Data reported in patent publication US20120165339A1, “CYCLOPROPANE DERIVATIVES” (EISAI R&D MANAGEMENT CO., LTD., priority 2010, published 2012).
Where two headings read alike, the source gives them in different places.

Tests used:
[1] = target: T1, OX1 (Homo sapiens, UniProt O43613); experiment: Antagonism PLAP reporter assay, HEK-293 cells expressing human OX1; type: cell-based; design: expressed in transfected cells; host or cells: HEK-293 cell line, expression vector pBabeCLIH; settings: HEK-293, 1 nM human OX-A; IC50 converted to Ki by Cheng-Prusoff equation
T1 sequence (O43613 1-425): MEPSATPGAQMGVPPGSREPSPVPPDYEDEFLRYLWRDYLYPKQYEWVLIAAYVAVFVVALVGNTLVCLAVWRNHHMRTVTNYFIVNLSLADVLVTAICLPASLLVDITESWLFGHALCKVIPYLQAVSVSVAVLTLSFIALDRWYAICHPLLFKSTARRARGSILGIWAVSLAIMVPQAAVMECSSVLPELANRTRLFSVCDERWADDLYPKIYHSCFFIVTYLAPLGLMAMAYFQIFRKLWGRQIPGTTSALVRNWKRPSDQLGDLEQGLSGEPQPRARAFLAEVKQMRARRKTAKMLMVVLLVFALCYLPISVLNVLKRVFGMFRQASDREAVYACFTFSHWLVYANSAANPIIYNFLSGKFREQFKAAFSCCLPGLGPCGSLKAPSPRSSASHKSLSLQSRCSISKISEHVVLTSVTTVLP
Method: (§1) The antagonistic function of the compound of the present invention to prevent the activation of OX2 and OX1 by orexin-A (OX-A), which is a natural peptide agonist, was measured using a cell-based reporter assay. A HEK-293 cell line expressing genetically recombinant human OX2 (accession No. NM_001526.3) or a HEK-293 cell line expressing genetically recombinant human OX1 (accession No. NM_001525.2), which had pBabeCLIH as expression vector, was used. The cells were plated at a density of 10,000 cells/well onto a non-coated 96-well plate in Dulbecco's modified Eagle medium (Sigma Cat No. D6046: 10% v/v heat-inactivated fetal bovine serum was contained). The cells were cultured at 37° C. overnight, so that they could adhere to the plate. On the following day, cells were incubated with a compound of the present invention dissolved in Dulbecco's modified Eagle medium (Sigma Cat No. A8806: 0.1% w/v bovine serum albumin was contained), and added to the cell plate to reach a final concentration of 0.1% dimethyl sulfoxide.
(§2) The thus obtained mixture was incubated at room temperature for 1 hour. Thereafter, human OX-A and forskolin were dissolved in the same medium as described above, which contained fetal bovine serum albumin, and the medium was then added to the cells, resulting in a final concentration of 300 nM forskolin. Subsequently, the cells were cultured at 37° C. for approximately 18 to 24 hours. During the culture, as a result of activation of the orexin receptor and subsequent dose-dependent increase in intracellular calcium concentration, a reporter enzyme, placental alkaline phosphatase (PLAP), was expressed under the control of a CRE x4+VIP promoter in a pBabeCLcre4vPdNN vector and secreted into the culture medium supernatant. On the following day, reporter enzyme activity was detected by mixing 5 ul of the culture medium supernatant with 20 ul of detection buffer (containing 1.34 g/L sodium bicarbonate, 1.27 g/L sodium carbonate and 0.2 g/L magnesium sulfate heptahydrate in water) and 25 ul of Lumi-Phos530 reagent (Wako Pure Chemical Industries Ltd.), followed by incubating the obtained mixture light-protected at room temperature for 2 hours, before performing luminescence measurement (ARVO Reader, PerkinElmer). The Kd value of human OX-A with respect to each receptor was measured by titration from 0 to 300 nM. Then, the IC50 value of the compound of the present invention with respect to the activity of 1 nM human OX-A was converted into a Ki value (nM) using the Cheng-Prusoff equation.

[2] = target: T1, OX1; experiment: Orexin-receptor binding ability, [125I]-OX-A, CHO cell membranes expressing OX1; design: expressed in transfected cells; host or cells: CHO cells (membrane preparation)
Method: (§3) The assay was carried out using a 96-well Wheat Germ Agglutinin Flash Plate (PerkinElmer). The volume in a single assay well was 100 ul, and the composition of the reaction solution was as follows:
(§4) 25 mM HEPES (pH 7.5), 1 mM CaCl2, 4.5 mM MgCl2, 0.5% BSA (bovine serum albumin), 0.1% sodium azide, 0.05% Tween-20, and 0.2% DMSO.
Cell membranes were prepared from recombinant CHO cells that expressed OX2 or OX1. The cell membranes were used in an amount of 5 μg protein/assay. […] Finally, the radioactivity of each well was measured using a scintillation counter (TopCount, PerkinElmer). The obtained results are shown in terms of IC50 values (nM) in the following table.

[3] = target: T2, OX2 (Homo sapiens, UniProt O43614); experiment: Orexin-receptor binding ability, [125I]-OX-A, CHO cell membranes expressing OX2; design: expressed in transfected cells; host or cells: CHO cells (membrane preparation)
T2 sequence (O43614 1-444): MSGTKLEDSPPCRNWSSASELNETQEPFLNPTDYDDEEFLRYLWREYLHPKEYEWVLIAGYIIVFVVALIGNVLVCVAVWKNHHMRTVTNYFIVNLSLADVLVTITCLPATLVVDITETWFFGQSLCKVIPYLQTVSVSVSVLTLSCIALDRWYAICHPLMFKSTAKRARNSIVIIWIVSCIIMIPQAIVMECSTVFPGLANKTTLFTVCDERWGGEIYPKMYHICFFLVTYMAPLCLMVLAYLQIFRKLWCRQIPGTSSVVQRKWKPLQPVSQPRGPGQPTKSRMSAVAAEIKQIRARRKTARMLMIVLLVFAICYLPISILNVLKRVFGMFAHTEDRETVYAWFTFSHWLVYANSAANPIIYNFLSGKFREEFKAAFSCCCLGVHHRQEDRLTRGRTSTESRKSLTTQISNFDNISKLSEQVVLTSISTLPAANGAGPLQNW
Method: as §3, §4
Cell membranes were prepared from recombinant CHO cells that expressed OX2 or OX1. The cell membranes were used in an amount of 5 μg protein/assay. Test compound in various concentrations, and 0.2 nM [^125I]-OX-A as tracer were added to the cell membranes, and then allowed to react at room temperature for 30 minutes. After completion of the reaction, the reaction solution as a whole was discarded, and the wells were then washed once with 200 ul of wash buffer (25 mM HEPES (pH 7.5), 1 mM CaCl2, 5 mM MgCl2, 0.5% BSA, 0.1% sodium azide, 0.05% Tween-20, and 525 mM sodium chloride). Finally, the radioactivity of each well was measured using a scintillation counter (TopCount, PerkinElmer). The obtained results are shown in terms of IC50 values (nM) in the following table.

[4] = target: T2, OX2; experiment: Antagonism PLAP reporter assay, HEK-293 cells expressing human OX2; type: cell-based; design: expressed in transfected cells; host or cells: HEK-293 cell line, expression vector pBabeCLIH; settings: HEK-293, 1 nM human OX-A; IC50 converted to Ki by Cheng-Prusoff equation
Method: as §1, §2

[5] = membranes of recombinant CHO cells, 0.2 nM [125I]-OX-A tracer, read-out: OX1 (IC50)
[6] = membranes of recombinant CHO cells, 0.2 nM [125I]-OX-A tracer, read-out: OX2 (IC50)

Row | SMILES | Ki [1] [nM] | Ki [4] [nM] | IC50 [2, 5] [nM] | IC50 [3, 6] [nM] | IC50 [2] [nM] | IC50 [3] [nM]
1 | COc1ccc(OCC2(c3ccccc3)CC2C(=O)Nc2ccc(Cl)cn2)cc1OC (stereo not shown) [Example 6, N-(5-chloropyridin-2-yl)-2-[(3,4-dimethoxyphenyl)oxymethyl]-2-phenylcyclopropanecarboxamide] | 9.8 | 0.8 | – | – | 19 | 3
2 | COc1ccc(OCC2(c3ccccc3)CC2C(=O)Nc2ccc(F)cn2)cc1OC (stereo not shown) [Example 10, N-(5-fluoropyridin-2-yl)-2-[(3,4-dimethoxyphenyl)oxymethyl]-2-phenylcyclopropanecarboxamide] | 68.6 | 4.2 | 56 | 3 | – | –
3 | COc1ccc(OCC2(c3ccccc3)CC2C(=O)Nc2cncc(Cl)c2)cc1OC (stereo not shown) [Example 11, N-(5-chloropyridin-3-yl)-2-[(3,4-dimethoxyphenyl)oxymethyl]-2-phenylcyclopropanecarboxamide] | 572 | 48.2 | 333 | 29 | – | –
4 | COc1ccc(OCC2(c3ccccc3)CC2C(=O)Nc2cc(C#N)ccn2)cc1OC (stereo not shown) [Example 18, N-(4-cyanopyridin-2-yl)-2-[(3,4-dimethoxyphenyl)oxymethyl]-2-phenylcyclopropanecarboxamide] | 186 | 23.7 | 105 | 35 | – | –
5 | COc1ccc(OCC2(c3ccccc3)CC2C(=O)Nc2cncc(F)c2)cc1OC (stereo not shown) [Example 24, N-(5-fluoropyridin-3-yl)-2-[(3,4-dimethoxyphenyl)oxymethyl]-2-phenylcyclopropanecarboxamide] | > 816 | 83.5 | 805 | 48 | – | –
6 | COc1ccc(OCC2(c3ccccc3)CC2C(=O)Nc2ccncc2C(F)(F)F)cc1OC (stereo not shown) [Example 25, N-(3-trifluoromethylpyridin-4-yl)-2-[(3,4-dimethoxyphenyl)oxymethyl]-2-phenylcyclopropanecarboxamide] | > 816 | 391 | 369 | – | – | 27
7 | COc1ccc(OCC2(c3ccccc3)CC2C(=O)Nc2ccc(F)nc2)cc1OC (stereo not shown) [Example 26] | 70 | 12.8 | – | – | 27 | 43
8 | COc1ccc(OCC2(c3ccccc3)CC2C(=O)Nc2cccc(F)n2)cc1OC (stereo not shown) [Example 27, N-(6-fluoropyridin-2-yl)-2-[(3,4-dimethoxyphenyl)oxymethyl]-2-phenylcyclopropanecarboxamide] | 98 | 3.4 | – | – | 37 | 4
9 | COc1cccc(NC(=O)C2CC2(COc2ccc(OC)c(OC)c2)c2ccccc2)c1 (stereo not shown) [Example 34, N-(3-methoxyphenyl)-2-[(3,4-dimethoxyphenyl)oxymethyl]-2-phenylcyclopropanecarboxamide] | 24 | 4.5 | 20 | 6 | – | –

The next lines start with results.

Row | Ki [1] [nM] | Ki [4] [nM] | IC50 [2, 5] [nM] | IC50 [3, 6] [nM] | SMILES | IC50 [2] [nM] | IC50 [3] [nM]
10 | > 816 | 55.9 | 1900 | 43 | COc1ccc(OCC2(c3ccccc3)CC2C(=O)Nc2nc(C)ns2)cc1OC (stereo not shown) [Example 7, N-(3-methyl-1,2,4-thiadiazol-5-yl)-2-[(3,4-dimethoxyphenyl)oxymethyl]-2-phenylcyclopropanecarboxamide] | – | –
11 | > 816 | 92.1 | 1260 | 17 | COc1ccc(OCC2(c3ccccc3)CC2C(=O)Nc2cc(C)no2)cc1OC (stereo not shown) [Example 8, N-(3-methylisoxazol-5-yl)-2-[(3,4-dimethoxyphenyl)oxymethyl]-2-phenylcyclopropanecarboxamide] | – | –
12 | > 816 | 99 | 438 | 46 | COc1ccc(OCC2(c3ccccc3)CC2C(=O)Nc2ccncc2Cl)cc1OC (stereo not shown) [Example 14, N-(3-chloropyridin-4-yl)-2-[(3,4-dimethoxyphenyl)oxymethyl]-2-phenylcyclopropanecarboxamide] | – | –
13 | > 816 | 77.1 | 505 | 28 | COc1ccc(OCC2(c3ccccc3)CC2C(=O)Nc2cc(C)on2)cc1OC (stereo not shown) [Example 21, N-(5-methylisoxazol-3-yl)-2-[(3,4-dimethoxyphenyl)oxymethyl]-2-phenylcyclopropanecarboxamide] | – | –
14 | > 816 | > 614 | 296 | 35 | COc1ccc(OCC2(c3ccccc3)CC2C(=O)Nc2ncc(C)s2)cc1OC (stereo not shown) [Example 22, N-(5-methyl-1,3-thiazol-2-yl)-2-[(3,4-dimethoxyphenyl)oxymethyl]-2-phenylcyclopropanecarboxamide] | – | –
15 | 624 | 15.8 | 847 | 14 | COc1ccc(OCC2(c3ccccc3)CC2C(=O)Nc2nc(C)cs2)cc1OC (stereo not shown) [Example 23, N-(4-methyl-1,3-thiazol-2-yl)-2-[(3,4-dimethoxyphenyl)oxymethyl]-2-phenylcyclopropanecarboxamide] | – | –
16 | 73.8 | 11 | 38 | 25 | COc1ccc(OCC2(c3ccccc3)CC2C(=O)Nc2cc(Cl)ccn2)cc1OC (stereo not shown) [Example 28, N-(4-chloropyridin-2-yl)-2-[(3,4-dimethoxyphenyl)oxymethyl]-2-phenylcyclopropanecarboxamide] | – | –
